Experimental data as given in patent publication US20250057808A1, “COMPOSITION COMPRISING BETA LACTAM FOR TREATING ALCOHOL DEPENDENCE AND ALCOHOL ASSOCIATED DISEASES OR CONDITIONS” (Temple University of the Commonwealth System of Higher …, priority 2023, published 2025).
“Also recorded” adds a separate entry of the source.

Key:
BDNF = test: Western blot BDNF in subregions of mPFC and NAc; assay type: in vivo, Male P rats
Method: All P rats were euthanized by CO2 inhalation and decapitated with a guillotine 24 hours after the final i.p. injection was administered on Day 6 of Week 6. Brains were removed and immediately frozen on dry ice and stored at −80° C. The mPFC subregions (infralimbic cortex and prelimbic cortex) and NAc subregions (core and shell) were dissected using a cryostat machine kept at −20° C. Surgical blades were used to dissect all brain regions following visualized landmarks using the stereotaxic coordinates provided by Paxinos and colleague's rat brain stereotactic atlas. All brain regions were stored in −80° C. Western Blot analyses.
Western blot was performed to determine the expression of BDNF, TNF-α, RAGE, HMGβ-1, and β-tubulin in the subregions of mPFC and NAc as preformed in previous studies.
Brain samples were lysed with a lysing buffer containing protease inhibitors. The amount of protein in each sample was quantified using a detergent compatible protein assay (Bio-Rad, Hercules, CA, USA). Polyacrylamide gels (10%) were loaded with the lysate mixture, and proteins were separated using gel electrophoresis for 1 hour. Proteins were then transferred from the gels onto Polyvinylidene difluoride (PVDF) membranes (BioRad). After transfer, membranes were incubated for 30 minutes in a mixture of nonfat milk in 1×Tris-buffered saline with Tween-20 (TBST) at room temperature. Membranes were then incubated at 4° C. for 24 hours with primary antibodies: anti-rabbit BDNF (1:1000, Abeam, #ab108319), anti-rabbit TNF-α (1:500, Abeam, #ab9739), anti-rabbit HMGβ-1 (1:500, Abeam, #ab18256), and anti-rabbit RAGE (1:1000, Abeam, #ab37407). Anti-mouse-β-tubulin (1:1000, Cell Signaling Technology, #D71G9) was used as a loading control antibody. After incubating for 24 hours, secondary antibody such as donkey anti-rabbit (1:4000, Invitrogen, #31458) or anti-mouse (1:4000, Cell Signaling, #7076S) was added to the membrane for 1 hour at room temperature. The membranes were then washed with 1×TBST three times for 5 minutes each and then dried. Membranes were then incubated in chemiluminescent reagents (Super Signal West Pico, Pierce Inc.) for 2 minutes. Blot images were developed using ChemiDoc. Imaging System and ImageJ software version 1.53a were used to quantify and analyze the expression of BDNF, TNF-α, RAGE, HMGβ-1, and β-tubulin.
The data for the water/saline control group were expressed as 100% based on the values corresponding to the ethanol/saline and ethanol/MC-100093 groups for each set of blotting. Thus, the expression of selected proteins for each group (ethanol/saline group or ethanol/MC-100093 group) was calculated relative to the water/saline control group being set to 100%.
Statistical analyses were performed using GraphPad Prism Version 10. Two-way repeated measures ANOVA followed by Bonferroni post-hoc tests were used to compare water and ethanol intake, and body weight, amongst water group, ethanol/saline group and ethanol/MC-100093 group. A one-way ANOVA test was performed to compare the expression of the studied proteins in selected brain regions in water/saline, ethanol/saline and ethanol/MC-100093 groups. Statistical significance was determined by a p-value of or less than 0.05.

xCT = test: Western blot xCT expression in NAc-core, NAc-shell and liver (50 mg/kg study); assay type: in vivo, P rats; settings: MC-100093 50 mg/kg or ceftriaxone 200 mg/kg i.p. 5 days; for Protein expression of xCT in the NAc-shell: vs Ethanol group
Method: We used micro-punch procedure to dissect the subregions of the NAc such as NAc-core and NAc-shell as well as the subregions of prefrontal cortex such as infralimbic (IL) and prelimbic (PL) from the brain on day 6 after the last injection day. P rats were removed from the cage and rapidly euthanized by CO2 inhalation followed by rapid decapitation with a guillotine. Brains were isolated and immediately frozen on dry ice and stored at −80° C. The stereotaxic coordinates provided by Paxinos and colleague's rat brain stereotactic atlas was used to isolate NAc-core and NAc-shell using a cryostat apparatus (−20° C.), which then kept at −80° C. for later western blot analyses.
Western Blot assay was performed to measure changes in the expression of GLT-1, xCT, mGluR1, mGluR5, PPAR-α, PPARγ, GAPDH and β-tubulin in the NAc-core and NAc-shell as described in previous publications. A lysis buffer containing protease and phosphatase inhibitors was used to generate a homogenate of liver, Nac-core, and Nac-shell samples. The amount of protein was quantified using a detergent compatible protein assay (Bio-Rad, Hercules, CA, USA) for each sample. Samples were mixed with laemmli dye and loaded with equal amounts on polyacrylamide gels (10%), which separated the proteins using electrophoresis. After that, polyvinylidene difluoride (PVDF) membranes were used to transfer the proteins electrophoretically from the gels. Membranes were incubated in 5% free-fat milk in Tris-buffered saline with Tween-20 (TBST) for 30-60 minutes at room temperature. Membranes were then incubated with appropriate primary antibodies overnight at 4° C.: rabbit anti-GLT-1 (1:5000, Abcam, ab41621), rabbit anti-xCT (1:2000, Abcam, ab175186), rabbit anti-mGluR1 (1:1000, Abcam, ab82211), rabbit anti-mGluR5 (1:1000, Abcam, ab76316), rabbit anti-PPAR-α (1:1000, Abcam, ab24509), and rabbit anti-PPARγ (1:1000, Abcam, ab209350). Mouse anti-β-tubulin (1:1000; BioLegend) was used as a loading control antibody for the brain samples and rabbit anti-GAPDH (1:5000; cell signaling) was used as a loading control antibody for the liver samples. Membranes were washed five times on the next day with TBST followed by incubation with appropriate secondary antibody (1:5000) for 90 minutes at room temperature. Chemiluminescent reagents (Super Signal West Pico, Pierce Inc.) were used to detect the proteins using a GeneSys imaging system to develop the digitized blot images. Water-control group data were represented as 100% and all other values were expressed relative to control group to detect changes in the expression of the protein of interest in the brain and liver samples.
All statistical analyses were conducted with Graphpad Prism software, with p-values of 0.05 or less being statistically significant. We performed a two-way (mixed model) ANOVA followed by Bonferroni multiple comparison post-hoc test to analyze 24 h ethanol consumption, 24 h water consumption, and daily body weight. For the Western blot and oil red O staining analysis, we performed one-way ANOVA with Newman-Keuls as a post hoc multiple comparison test to measure differences between groups as a percentage (relative to control values).

[1] = test system: gram-positive and gram-negative bacteria; settings: cited from earlier work
[2] = ethanol/MC-100093 group (100 mg/kg i.p.) compared to water/saline and ethanol/saline groups

C[C@@H](O)[C@H]1C(=O)N[C@@H]1[C@@H](C)C(=O)N1CCN(C)CC1 [MC-100093]
BDNF expression in the NAc shell (BDNF; 100 mg/kg i.p., compared to ethanol/saline group): significant increase in BDNF expression
Increase in BDNF expression in the NAc core (BDNF; 100 mg/kg i.p., compared to water/saline and ethanol/saline groups): 11%
Increase in BDNF expression in the IL (mPFC) (BDNF; [2]): 40%
Increase in BDNF expression in the PL (mPFC) (BDNF; [2]): 27%
BDNF expression in the subregions of NAc and mPFC (summary) (BDNF; male P rats, 100 mg/kg i.p., 100 mg/kg): attenuated ethanol-induced downregulation of brain derived neurotrophic factor (BDNF) expression
Protein expression of xCT in the NAc-core (xCT; among all groups): non-significant difference; also recorded: no significant difference
Protein expression of xCT in the liver (xCT; between all groups): no significant differences
Protein expression of xCT in the NAc-shell (xCT): significantly higher level of xCT; also recorded: normalized GLT-1 and xCT levels in the NAc-shell
Protein expression of xCT in the NAc-shell (xCT; listed as MC-100095): significantly increased xCT expression
Antimicrobial / antibiotic activity [1]: without any antibiotic action; also recorded: no antibiotic activity; also recorded: no antibiotic actions; also recorded: lacking the antibacterial properties; also recorded: lacks antimicrobial activity; also recorded: does not have any antibiotic action
